According to patent US9149530B2, “Compositions and methods for enhancing active agent absorption” (Nexus Pharma, Inc., priority 2006, dated 2015):

Test system: Sprague-Dawley rats
Assay: Blood glucose depression after intracolonic bovine pancreatic insulin given with absorption enhancer
Format: in vivo
Details: enhancer 0 mg/kg (insulin alone), rats n=3
Experimental: It is neutralized by 1 equivalent of sodium hydroxide. The pH is adjusted to 7-8 by 1N HCl and saturated sodium bicarbonate. Bovine pancreatic insulin (1.75 mL; Sigma, 10 mg/mL; in pH 8.2 HEPES buffer) is added and mixed by gentle swirling. The solution density is determined so that the required dose may be calculated.
The solution is then given to Sprague-Dawley rats (2-day fasting, female, 250-300 g, n=3), intracolonically. Blood samples are taken from the tail vein and glucose levels measured using an OneTouch® UltraSmart® blood glucose meter.

## bovine pancreatic insulin: Bovine pancreatic insulin (Sigma, 10 mg/mL; in pH 8.2 HEPES buffer), the active agent co-administered
0 min
  Blood glucose, % of basal level: 100 % of basal level
30 min
  Blood glucose, % of basal level: 94 ± 4 % of basal level
60 min
  Blood glucose, % of basal level: 102 ± 7 % of basal level
90 min
  Blood glucose, % of basal level: 105 ± 3 % of basal level
120 min
  Blood glucose, % of basal level: 107 ± 7 % of basal level
150 min
  Blood glucose, % of basal level: 94 ± 7 % of basal level
180 min
  Blood glucose, % of basal level: 111 ± 7 % of basal level
210 min
  Blood glucose, % of basal level: 113 ± 4 % of basal level
240 min
  Blood glucose, % of basal level: 100 ± 7 % of basal level
